Results taken from US20040241860A1, “Method of breeding glyphosate resistant plants” (Advanta Technology Limited, priority 1998, published 2004).

Experiments:
Assay type in all cases: in vivo, corn
[1] = test system: heterozygous resistant plants (Rr, Glyphosate-resistance event GA21); experiment: Foliar glyphosate spray of putative heterozygous resistant plants, plant mortality (Example 1)
Description: (§1) Progeny of a cross between a homozygous resistant plant (RR) and a homozygous susceptible plant (rr) were planted at the Garst Research Centre near Slater, Iowa, and at the Hawaii Research Centre near Kunia, Hi. It was expected that none of the progeny would segregate for resistance to foliar applications of glyphosate. To test this, the progeny growing at the IA test site were sprayed with glyphosate at a rate of 64 oz per acre during the V5 and V6 stages of growth (26 days after planting). At the same time and rate, several plants in a row of known susceptible plants were sprayed. All of the sprayed plots were examined for plant mortality 7 days after spraying. As expected, all of the susceptible check plants were dead and while all of the putative heterozygous resistant plants were alive (Table 1).
(§2) A second application of 32oz per acre was applied to the heterozyous resistant plants at the V7 to V8 stage of growth (9 days later). These plants comprised the “Sprayed” class in subsequent experiments. In HI, none of the plants were sprayed with glyphosate and these plants comprised the “Unsprayed” class in subsequent experiments. At both locations, crosses were made between the heterozygous resistant plants and homozygous susceptible plants.

[2] = test system: progeny of crosses between heterozygous resistant plants and homozygous susceptible plants; experiment: Evaluation of progeny from Sprayed and Unsprayed classes: counts of resistant and susceptible plants after glyphosate spray (Example 2); conditions: progeny sprayed 64 oz per acre V3-V4, counted ten days post-application
Description: as §2
Progeny of the crosses from each class were planted at the HI location. All progeny plants from each class were sprayed with glyphosate at a rate of 64 oz per acre during the V3 to V4 stages of growth. Ten days post-application, counts of resistant and susceptible plants were made for each class. The expected segregation, 1:1 resistant to susceptible, was compared to the observed segregation for each class (Table 2).

[3] = test system: homozygous susceptible plants (rr); experiment: Foliar glyphosate spray of known susceptible check plants, plant mortality (Example 1)
Description: as §1

[4] = progeny of Unsprayed class (parents not sprayed), 182 plants

SMILES: O=C(O)CNCP(=O)(O)O [glyphosate]
- Observed Segregation ([1]; class Heterozygous Resistant, 64 oz per acre at V5 and V6 stages (26 days after planting), examined 7 days after spraying): All Resistant
- plant mortality ([1]; putative heterozygous resistant plants, 64 oz per acre, V5 and V6, 7 days after spraying): alive
- Observed Segregation: Resistant plants ([2]; progeny of Sprayed class (parents 64 oz per acre V5-V6 plus 32 oz per acre V7-V8), 504 plants): 504
- Observed Segregation: Resistant plants [2, 4]: 100
- Observed Segregation: Susceptible plants [2, 4]: 82
- Observed Segregation ([3]; class Homozygous Susceptible, 64 oz per acre at the same time and rate, examined 7 days after spraying): All Susceptible
- plant mortality ([3]; susceptible check plants, 64 oz per acre, 7 days after spraying): dead
